# Results taken from article PMC9518248, “Inhibition of Toxoplasma gondii by 1,2,4-triazole-based compounds: marked improvement in selectivity relative to the standard therapy pyrimethamine and sulfadiazine” (Journal of Enzyme Inhibition and Medicinal Chemistry, 2022).
# Entries after “also recorded” stand apart in the source; their conditions may differ.
# Key:
# T. gondii RH-GFP = experiment: Antiparasitic assay: T. gondii RH-GFP proliferation in Hs27 cells; assay type: cell-based, Toxoplasma gondii
# [1] = tested on: human glioblastoma T98G cells; experiment: Cytotoxicity against glioblastoma cells (MTT); assay type: cell-based; conditions: 24 h
# Procedure: (§1) Cytotoxic effect of 20b was evaluated using glioblastoma (T98G) cells obtained from the American Type Culture Collection (Manassas, VA). Cells were cultured in Dulbecco’s Modified Eagle’s Medium (DMEM-high glucose) (Sigma Aldrich, St. Louis, MO), supplemented with 10% heat inactivated FBS, penicillin (100 U/mL), and streptomycin (100 μg/mL) (Sigma Aldrich, St. Louis, MO). Cells were maintained in a humidified atmosphere of 5% CO2 and 95% air at 37 °C. Stock solutions of the investigated compounds (20b and temozolomide) were prepared by dissolving solid substances in a sterile DMSO. T98G glioblastoma cells were seeded into 96-well sterile plates at a density of 1 × 10^5cells/mL. After 24 h of incubation, the medium was removed from each well and then cells were incubated for the next 24 h with different concentrations of the investigated compounds (10, 25, 35, 50, and 100 µg/mL) in the medium containing 2% FBS. Viability of T98G cells was evaluated using MTT assay, whose principle is based on the conversion of 3–(4,5-dimethylthiazol-2-yl)-2,5-diphenyltetrazolium bromide (MTT) into dark-blue formazan crystals. In brief, after 24 h incubation of cells with varying concentrations of the tested compounds, culture medium was removed from the plate. Cells were washed with PBS, and then 100 µL of medium containing 10% MTT solution (5 mg/mL) was added to each well. After 3 h incubation, 100 µL (per well) of 10% SDS buffer solution was added to solubilise formazan crystals. After overnight incubation the absorbance was measured at 570 nm using a microplate reader (Epoch, BioTek Instruments, Winooski, VT). Experiments were repeated three times, and the measurements in each experiment were run in quadruplicate. Viability of the investigated cells was expressed as % of the viability of the untreated cells.
# [2] = Cytotoxicity against glioblastoma cells (MTT); assay type: cell-based, human; conditions: human, T98G glioblastoma cells, MTT, read-out: Viability of T98G cells (% of control ± SD)
# Procedure: as §1
# [3] = tested on: Human red blood cells (RBCs); experiment: Haemolytic activity determination; assay type: cell-based; conditions: at the concentration equal to its IC50Tg
# Procedure: (§2) Human red blood cells (RBCs) concentrate was obtained from the Regional Blood Donation and Transfusion Centre (Lublin, Poland). RBCs concentrate (5 mL) was washed three times with sterile PBS and centrifuged at 500 g for 3 min. […] The amount of free haemoglobin in supernatants was measured spectrophotometrically at 405 nm. Negative and positive controls were performed by incubating RBCs with sterile PBS and 0.1% Triton-X, respectively. Each experiment was run in triplicate.
# [4] = Haemolytic activity determination; assay type: cell-based; conditions: 2% suspension of human red blood cells, human RBCs, 37 °C, 30 min, read-out: Haemolysis (%)
# Procedure: as §2
# [5] = tested on: T. gondii tachyzoites of the RH-GFP strain; experiment: Toxoplasma tachyzoites invasion assay (Assay A); conditions: 3 h pre-treatment at 35.35, 70.70 and 176.75 μg/mL, then 24 h treatment-free
# Procedure: The Hs27 cells were cultured on Lab-Tek™ 4-well Chamber Slides (Nunc) (5 × 10^4 cells/500 μL per well).
# Then, the cells were washed to remove extracellular parasites and parasite culture medium (without any compounds) was added for 24 h.
# In both assays as the control, Hs27 cells were infected, but not treated. After subsequent 24 h of incubation (Assay A and B), the slides were washed with sterile PBS, fixed with formaldehyde solution (252549, Sigma-Aldrich), 3.7% in PBS for 20 min, and stained with DAPI for 10 min (1 mg/mL, ThermoFisher Scientific, Waltham, MA). Microscopic analysis of 100 cells in turn, comprised of counting the infected cell ratio and tachyzoites per each parasitophorous vacuoles of infected cell, was performed using a fluorescent microscope (Axio Scope.A1, Carl Zeiss, Germany) at a magnification ×1000. For image processing ZEISS ZEN Microscope Software version 3.1 (Oberkochen, Germany) was used. Three independent experiments on triplicate chamber slides using the same conditions for both assays were performed.
# PAMPA-BBB assay = assay type: in vitro ADME
# Procedure: BBB permeability of 20b was investigated using a parallel artificial membrane permeability assay (PAMPA) method. The PAMPA system, consisted of a 96-well microfilter plate, was divided into two chambers: a donor at the bottom and an acceptor at the top, separated by a 120-μm-thick microfilter disc coated with BBB lipid solution (Pion, Inc., Billerica, MA). The solutions of 20b were prepared in dimethylsulphoxide (DMSO) at 4 mg/mL concentration and then diluted with Prisma buffer (pH = 7.4) to obtain the donor drug solution with the final nominal concentration of 20 μg/mL. Then, 180 μL of the donor solution were added to the donor wells. Subsequently, each filter membrane of the top plate was coated with 5 μL BBB-1 lipid solution (Pion Inc.) and the acceptor well was filled with 200 μL of Brain Sink Buffer (BSB). The acceptor plate and the donor plate were sandwiched together and incubated at 37 °C for 180 min.
# The permeability coefficient value (Pe) was calculated by using the following equation: Pe=−ln(1−CA/Cequilibrium)/S×(1/VD+1/VA)×t where VD – donor volume, VA – acceptor volume, Cequilibrium – equilibrium concentration, Cequilibrium=CD×VD+CA×VA/VD+VA, CD – donor concentration, CA – acceptor concentration, S – membrane area, and t – incubation time (in seconds).
# Human Hs27 cells = experiment: Genotoxic activity, single cell gel electrophoresis (comet assay); assay type: cell-based; conditions: 24 h, concentration equal to IC50Tg
# Procedure: All the procedures performed were in line with the manufacturer’s protocol. Human Hs27 cells, previously exposed for 24 h to the compound, were combined with liquefied low melting Agarose at 37 °C and transferred onto the OxiSelect comet slides. After storing for 15 min at 4 °C, the slides were immersed in a pre-chilled Lysis Buffer (for 45 min at 4 °C) and Alkaline Solution (for 30 min at 4 °C). Afterwards, the Alkaline Solution was replaced with pre-chilled TBE electrophoresis solution. After immersing for 5 min, the slides were put into the horizontal electrophoresis chamber and covered with TBE electrophoresis buffer. The electrophoresis was run for 15 min at 1 volt/cm. Finally, DNA was stained with Vista Green DNA Dye for 15 min at room temperature and observed under fluorescence microscope (Olympus BX63, Tokyo, Japan). The images of cells were captured using XM10 digital camera (Olympus). The DNA damage was measured quantitatively using OpenComet software. At least 50 randomly selected images were used in each analysis.
# [6] = tested on: T. gondii tachyzoites of the RH-GFP strain; experiment: Intracellular Toxoplasma tachyzoites proliferation assay (Assay B); assay type: cell-based, Toxoplasma gondii; conditions: 3 h infection, then 24 h treatment at 35.35, 70.70, 176.75 μg/mL; dose-dependent
# [7] = tested on: Tyrosinase (TYR) from mushrooms; experiment: Inhibition of tyrosinase activity assay; assay type: biochemical; conditions: for Diphenolase activity: substrate DOPA; for Monophenolase activity: substrate L-tyrosine
# Procedure: Tyrosinase (TYR) from mushrooms ([…], Sigma) was used in our study. We analysed inhibition of 20 b on both monophenolase and diphenolase activity of TYR. All compound dilutions, both substrate L-tyrosine (Tyr) and levodopa (DOPA), and TYR were prepared in 50 mM phosphate buffer (pH 6.5). […] Firstly, the substrate and compound were added to a 96-well flat-bottom plate (Nunc MaxiSorp^TM, Roskilde, Denmark), next TYR was added and the initial absorbance (A0) was measured spectrophotometrically at 492 nm. Then, the plate was incubated at 25 °C for 30 min. After incubation, the amount of dopachrome produced in the reaction mixture was determined spectrophotometrically at 492 nm (A30) using the multi-mode microplate reader SpectraMax® i3. As 100% TYR activity samples without addition of compound, were used. The average results from three experiments are shown.
# [8] = 1 µM, % of activity without compound
structure (smiles),measurement,setting,value
COc1ccc(-n2c(-c3[nH]cnc3C)n[nH]c2=S)cc1 [20b],selectivity (SI) relative to PYR,T. gondii RH-GFP; SI of compound vs SI of PYR,11 fold
same,selectivity (SI) relative to SDZ,T. gondii RH-GFP; SI of compound vs SI of SDZ,160 fold
same,selectivity (SI) relative to TRI,T. gondii RH-GFP; SI of compound vs SI of TRI,4 fold
same,IC50,"T. gondii RH-GFP; Toxoplasma gondii, T. gondii RH-GFP in Hs27 cells, 96 h, values above highest tested concentration extrapolated, read-out: IC50Tg",35.4 µg/mL
same,SI,"T. gondii RH-GFP; selectivity index, CC30 (L929)/IC50Tg",70.72
same,reduction of T98G cell viability,[1]; 10 µg/mL,~6%
same,reduction of T98G cell viability,[1]; 100 µg/mL,~24%
same,"viability at 24 h, 10 µg/mL",[2]; 10 µg/mL,94.2 ± 2.06%
same,"viability at 24 h, 25 µg/mL",[2]; 25 µg/mL,92 ± 3.27%
same,"viability at 24 h, 35 µg/mL",[2]; 35 µg/mL,87.15 ± 0.55%
same,"viability at 24 h, 50 µg/mL",[2]; 50 µg/mL,82.1 ± 1.73%
same,"viability at 24 h, 100 µg/mL",[2]; 100 µg/mL,76.26 ± 0.74%
same,haemolytic activity,[3],no specific haemolytic activity; also recorded: no specific haemolytic changes
same,"hemolysis at 30 min, 5 µg/mL",[4]; 5 µg/mL,0.038 ± 0.007%
same,"hemolysis at 30 min, 10 µg/mL",[4]; 10 µg/mL,0.104 ± 0.042%
same,"hemolysis at 30 min, 35 µg/mL",[4]; 35 µg/mL,0.183 ± 0.086%
same,parasite invasion: percentage of infected cells,[5],did not cause significant reductions in percentage of infected cells
same,BBB permeation classification,"PAMPA-BBB assay; CNS+ if Pe > 5.19, CNS− if Pe < 2.07 (× 10^−6 cm·s^−1)",centrally active
same,"Papp at 180 min, 20 μg/mL","PAMPA-BBB assay; pH 7.4, 37 °C, 180 min, read-out: permeability coefficient Pe",34.9 ± 2.73 ×10⁻⁶ cm/s
same,% DNA in comet tail,Human Hs27 cells,3.38 ± 0.45%
same,genotoxic effect (DNA damage),Human Hs27 cells,no induction of DNA damage; also recorded: no genotoxic effect
same,intracellular proliferation: size of PV and number of tachyzoites per PV,[6],significant reduction in both size of the PV and number of intra vacuolar tachyzoites
same,Diphenolase activity,[7]; [8],94.6 ± 3.3%
same,Monophenolase activity,[7]; [8],101.76 ± 4.69%
same,Diphenolase activity,[7]; 10 µM,99.6 ± 0.7%
same,Monophenolase activity,[7]; 10 µM,99.01 ± 1.79%
same,Diphenolase activity,[7]; 25 µM,92.7 ± 1.7%
same,Monophenolase activity,[7]; 25 µM,92.97 ± 2.54%
same,Diphenolase activity,[7]; 50 µM,91.2 ± 1.2%
same,Monophenolase activity,[7]; 50 µM,90.66 ± 4.29%
same,Diphenolase activity,[7]; 100 µM,75.3 ± 7.8%
same,Monophenolase activity,[7]; 100 µM,70.81 ± 2.18%
same,Diphenolase activity,[7]; 200 µM,52.7 ± 6.8%
same,Monophenolase activity,[7]; 200 µM,46.79 ± 4.31%
same,Diphenolase activity,[7]; 400 µM,25.7 ± 12.8%
same,Monophenolase activity,[7]; 400 µM,23.09 ± 8.35%
same,inhibitory effect on tyrosinase activity,[7]; at concentrations below 50 µM,< 10%
